According to patent publication US20260008780A1, “SUBSTITUTED 3,4-DIHYDROISOQUINOLIN-1(2H)-ONE DERIVATIVES AND RELATED USES” (NodThera Limited, priority 2022, published 2026):
pIC50: −log10 of the molar value. Counter-ions that a name gives are not always drawn.

test system: IL-1β release upon NLRP3 activation in peripheral blood mononuclear cells (PBMC); assay: PBMC IC50 Determination Assay; assay type: cell-based; conditions: Homo sapiens; PBMC from buffy coats, LPS 3 h, compound 30 min, then ATP (5 mM) or nigericin (10 μM) 1 h; IL-1β in media by ELISA (Protocol A) or HTRF (Protocol B)
Experimental: The compounds of the present disclosure were tested for their inhibitory activity against IL-1β release upon NLRP3 activation in peripheral blood mononuclear cells (PBMC).
Protocol A. PBMC were isolated from buffy coats by density gradient centrifugation on Histopaque-1077 (Sigma, cat no. 10771). Isolated cells were seeded into the wells of a 96-well plate and incubated for 3 h with lipopolysaccharide (LPS). Following medium exchange, the compounds of the present disclosure were added (a single compound per well) and the cells were incubated for 30 min. Next, the cells were stimulated either with ATP (5 mM) or nigericin (10 μM) for 1 h and the cell culture media from the wells were collected for further analysis.
The release of IL-1β into the media was determined by a quantitative detection of IL-1β in the media using an IL-1p enzyme-linked immunosorbent assay (ELISA) Ready-SET-Go!, eBioscience cat. No. 88-7261-88. Briefly, in a first step, high affinity binding plates (Corning, Costar 9018 or NUNC Maxisorp Cat No. 44-2404) were coated overnight at 4° C. with specific capture antibody included in the kit (anti-human IL-1β ref 14-7018-68). Subsequently, plates were blocked with blocking buffer for 1 h at room temperature (rt) and after washing with a buffer (PBS with 0.05% Tween-20) incubated with protein standard and culture media. After 2 h of incubation at rt, plates were washed and incubated with biotinylated detection antibody included in the kit (anti-human IL-1β Biotin ref. 33-7110-68) for 1 h at rt. Plates were washed and incubated with HRP-streptavidin for 30 min at rt and washed again. The signal was developed after addition of 3,3′,5,5′-tetramethylbenzidine-peroxidase (TMB) until colour appeared and the reaction was stopped by 2 M H2SO4. A microplate spectrophotometer (BioTek) was used to detect signals with 450 nm. The detection range of IL-1β ELISA was […].
Protocol B. PBMC were isolated from buffy coats by density gradient centrifugation on Histopaque-1077 (Sigma, cat no. 10771). Isolated cells were seeded into the wells (280,000 cells/well) of a 96-well plate and incubated for 3 h with lipopolysaccharide (LPS, 1 μg/mL diluted 1000× from a 1 mg/mL stock solution). The compounds of the present disclosure were added (a single compound per well) and the cells were incubated for 30 min. Next, the cells were stimulated with ATP (5 mM final concentration diluted 20× from a 100 mM stock solution) for 1 h and the cell culture media from the wells were collected for further analysis.
The release of IL-1β into the media was determined by quantitative detection of IL-1β in the media using HTRF®, CisBio cat. No. 62HIL1BPEH. Briefly, cell culture supernatant were dispensed directly into the assay plate containing antibodies labelled with the HTRF® donor and acceptor. A microplate spectrophotometer (BMG) was used to detect signals at 655 nm and 620 nm. The detection range of IL-1β HTRF® was 39-6500 μg/mL.

Row | SMILES | pIC50
1 | C[C@@H]1CN(CC(=O)Nc2ncccn2)C(=O)c2cc3sc(Cl)cc3n21 (racemic) [Compound 9, N-Pyrimidin-2-yl-2-[rac-(12R)-4-chloro-12-methyl-9-oxo-5-thia-1,10-diazatricyclo[6.4.0.02,6]dodeca-2(6),3,7-trien-10-yl]acetamide] | 5.52 to 6.00
2 | CC1Cn2cccc2C(=O)N1CC(=O)N[C@@H]1CCCN(C2CC2)C1 (stereo partly drawn) [Compound 1, N-[(3R)-1-Cyclopropyl-3-piperidyl]-2-(3-methyl-1-oxo-3,4-dihydropyrrolo[1,2-a]pyrazin-2-yl)acetamide hydrochloride] | 5.00 to 5.52
3 | C[C@]1(O)C[C@@H](NC(=O)CN2CC3(CC3)n3c(cc4sc(Cl)cc43)C2=O)C1 [Compound 2, cis-2-(4-Chloro-9-oxo-spiro[5-thia-1,10-diazatricyclo[6.4.0.0^2.6]dodeca-2(6),3,7-triene-12,1′-cyclopropane]-10-yl)-N-(3-hydroxy-3-methylcyclobutyl) acetamide] | 5.52 to 6.00
4 | O=C(CN1CC2(CC2)n2c(cc3sc(Cl)cc32)C1=O)Nc1ncccn1 [Compound 3, 2-(4-Chloro-9-oxo-spiro[5-thia-1,10-diazatricyclo[6.4.0.02,6]dodeca-2(6),3,7-triene-12,1′-cyclopropane]-10-yl)-N-pyrimidin-2-yl-acetamide] | 6.00 to 7.00
5 | O=C(CN1CC2(CC2)n2c(cc3sc(Cl)cc32)C1=O)NC1CC2(COC2)C1 [Compound 4] | 5.52 to 6.00
6 | Cc1nc(NC(=O)CN2CC3(CC3)n3c(cc4sc(Cl)cc43)C2=O)ns1 [Compound 5, 2-(4-Chloro-9-oxo-spiro[5-thia-1,10-diazatricyclo[6.4.0.0^2,6]dodeca-2(6),3,7-triene-12,1′-cyclopropane]-10-yl)-N-(5-methyl-1,2,4-thiadiazol-3-yl)acetamide] | 5.52 to 6.00
7 | O=C(CN1CC2(CC2)n2c(cc3sc(Cl)cc32)C1=O)Nc1ncc(F)cn1 [Compound 6, 2-(4-Chloro-9-oxo-spiro[5-thia-1,10-diazatricyclo[6.4.0.0^2.6]dodeca-2(6),3,7-triene-12,1′-cyclopropane]-10-yl)-N-(5-fluoropyrimidin-2-yl)acetamide] | > 7.00
8 | CCn1cc2c(n1)C1(CC1)CN(CC(=O)Nc1ncc(F)cn1)C2=O [Compound 7, 2-(2-Ethyl-4-oxo-spiro[6H-pyrazolo[4,3-c]pyridine-7,1′-cyclopropane]-5-yl)-N-(5-fluoropyrimidin-2-yl)acetamide] | 5.52 to 6.00
9 | CC(C)c1cc2n(n1)C1(CC1)CN(CC(=O)Nc1ncccn1)C2=O [Compound 8, 2-(2-Isopropyl-4-oxo-spiro[6H-pyrazolo[1,5-a]pyrazine-7,1′-cyclopropane]-5-yl)-N-pyrimidin-2-yl-acetamide] | 5.00 to 5.52
10 | C[C@@H]1CN(CC(=O)N[C@H]2C[C@@](C)(O)C2)C(=O)c2cc3sc(Cl)cc3n21 [Compound 10, 2-[(12R)-4-Chloro-12-methyl-9-oxo-5-thia-1,10-diazatricyclo[6.4.0.02,6]dodeca-2(6),3,7-trien-10-yl]-N-(3-hydroxy-3-methyl-cyclobutyl)acetamide] | 5.00 to 5.52
11 | CC(C)c1cc2n(c1)C1(CC1)CN(CC(=O)Nc1ncccn1)C2=O [Compound 11, 2-(7-Isopropyl-1-oxo-spiro[3H-pyrrolo[1,2-a]pyrazine-4,1′-cyclopropane]-2-yl)-N-pyrimidin-2-yl-acetamide] | 5.00 to 5.52
12 | CC(C)c1nc2c(s1)C(=O)N(CC(=O)Nc1ncccn1)CC21CC1 [Compound 12, 2-(2-Isopropyl-4-oxo-spiro[6H-thiazolo[5,4-c]pyridine-7,1′-cyclopropane]-5-yl)-N-pyrimidin-2-yl-acetamide] | 5.00 to 5.52
13 | CCc1nc2c(s1)C(=O)N(CC(=O)Nc1ncccn1)CC21CC1 [Compound 13, 2-(2-Ethyl-4-oxo-spiro[6H-thiazolo[5,4-c]pyridine-7,1′-cyclopropane]-5-yl)-N-pyrimidin-2-yl-acetamide] | 5.00 to 5.52
14 | CCc1cc2c(s1)C(=O)N(CC(=O)Nc1ncccn1)CC21CC1 [Compound 14, 2-(2-Ethyl-7-oxo-spiro[5H-thieno[2,3-c]pyridine-4,1′-cyclopropane]-6-yl)-N-pyrimidin-2-yl-acetamide] | 6.00 to 7.00
15 | O=C(CN1CC2(CC2)c2nc(C3CC3)sc2C1=O)Nc1ncccn1 [Compound 15, 2-(2-Cyclopropyl-4-oxo-spiro[6H-thiazolo[5,4-c]pyridine-7,1′-cyclopropane]-5-yl)-N-pyrimidin-2-yl-acetamide] | 6.00 to 7.00
16 | CCOC(=O)c1cnc(NC(=O)CN2CC3(CC3)c3nc(C4CC4)sc3C2=O)nc1 [Compound 16, Ethyl 2-[[2-(2-cyclopropyl-4-oxo-spiro[6H-thiazolo[5,4-c]pyridine-7,1′-cyclopropane]-5-yl)acetyl]amino]pyrimidine-5-carboxylate] | 5.52 to 6.00
17 | CC(C)n1cc2c(n1)C1(CC1)CN(CC(=O)Nc1ncccn1)C2=O [Compound 17, 2-(2-Isopropyl-4-oxo-spiro[6H-pyrazolo[4,3-c]pyridine-7,1′-cyclopropane]-5-yl)-N-pyrimidin-2-yl-acetamide] | 5.00 to 5.52
18 | CCc1cc2c(o1)C1(CC1)CN(CC(=O)Nc1ncccn1)C2=O [Compound 18, 2-(2′-Ethyl-4′-oxo-4′H-spiro[cyclopropane-1,7′-furo[3,2-c]pyridin]-5′(6′H)-yl)-N-(pyrimidin-2-yl)acetamide] | 6.00 to 7.00
19 | CC(C)c1cc2c([nH]1)C(=O)N(CC(=O)Nc1ncccn1)CC21CC1 [Compound 19, 2-(2′-Isopropyl-7′-oxo-1′,7′-dihydrospiro[cyclopropane-1,4′-pyrrolo[2,3-c]pyridin]-6′(5′H)-yl)-N-(pyrimidin-2-yl)acetamide] | 5.52 to 6.00
20 | CC(C)c1cc2c(n1C)C(=O)N(CC(=O)Nc1ncccn1)CC21CC1 [Compound 20, 2-(2′-Isopropyl-1′-methyl-7′-oxo-1′,7′-dihydrospiro[cyclopropane-1,4′-pyrrolo[2,3-c]pyridin]-6′(5′H)-yl)-N-(pyrimidin-2-yl)acetamide] | 5.52 to 6.00
21 | CC(C)c1nc2c(n1C)C(=O)N(CC(=O)Nc1ncccn1)CC21CC1 [Compound 21] | 4.30 to 5.00
22 | CC(C)c1cc2n(n1)[C@H](C)CN(CC(=O)Nc1ncccn1)C2=O [Compound 22, 2-[(7R)-7-Methyl-4-oxo-2-(propan-2-yl)-4H,5H,6H,7H-pyrazolo[1,5-a]pyrazin-5-yl]-N-(pyrimidin-2-yl)acetamide] | 4.30 to 5.00
23 | CCNc1cc2c(s1)C(=O)N(CC(=O)Nc1ncccn1)CC21CC1 [Compound 23, 2-(2′-(Ethylamino)-7′-oxo-5′H-spiro[cyclopropane-1,4′-thieno[2,3-c]pyridin]-6′(7′H)-yl)-N-(pyrimidin-2-yl)acetamide] | 5.52 to 6.00
24 | Cc1cc2c(s1)C(=O)N(CC(=O)Nc1ncccn1)CC21CC1 [Compound 24, 2-(2′-Methyl-7′-oxo-5′H-spiro[cyclopropane-1,4′-thieno[2,3-c]pyridin]-6′(7′H)-yl)-N-(pyrimidin-2-yl)acetamide] | 5.52 to 6.00
25 | CC(C)c1cc2c(s1)C(=O)N(CC(=O)Nc1ncccn1)CC21CC1 [Compound 25, 2-(2′-Isopropyl-7′-oxo-5′H-spiro[cyclopropane-1,4′-thieno[2,3-c]pyridin]-6′(7′H)-yl)-N-(pyrimidin-2-yl)acetamide] | 6.00 to 7.00
26 | O=C(CN1CC2(CC2)c2cc(C3CC3)sc2C1=O)Nc1ncccn1 [Compound 26, 2-(2′-Cyclopropyl-7′-oxo-5′H-spiro[cyclopropane-1,4′-thieno[2,3-c]pyridin]-6′(7′H)-yl)-N-(pyrimidin-2-yl)acetamide] | 6.00 to 7.00
27 | CC1(c2cc3c(s2)C(=O)N(CC(=O)Nc2ncccn2)CC32CC2)CC1 [Compound 27, 2-(2′-(1-Methylcyclopropyl)-7′-oxo-5′H-spiro[cyclopropane-1,4′-thieno[2,3-c]pyridin]-6′(7′H)-yl)-N-(pyrimidin-2-yl)acetamide] | 6.00 to 7.00
28 | Cc1nc2c(cc3n2C(C)CN(CC(=O)Nc2ncccn2)C3=O)s1 (centres unmarked) [Compound 41] | 4.30 to 5.00
29 | CCc1cc2c(s1)C(=O)N(CC(=O)Nc1ccc3c(c1)[nH]c(=O)n3C)CC21CC1 [Compound 44, 2-(2′-Ethyl-7′-oxo-5′H-spiro[cyclopropane-1,4′-thieno[2,3-c]pyridin]-6′(7′H)-yl)-N-(1-methyl-2-oxo-2,3-dihydro-1H-benzo[d]imidazol-5-yl)acetamide] | 5.52 to 6.00
